Test results from US8022052B2, “Inhibition of PPAR gamma expression by specific osteogenic oxysterols” (The Regents of the University of California, priority 2006, dated 2011).
“Also recorded” adds a separate entry of the source. Read-outs that look alike come from different tables or passages of the source.

Tests used:
[1] = test system: M2 cells; test: 45Ca incorporation assay measuring mineralization in M2 cells; assay type: cell-based
Description: One aspect of the invention is an oxysterol (e.g. an isolated oxysterol) of the invention as represented by Formula I, above. For example, the compounds designated as Oxy 7, Oxy 9, Oxy11, Oxy12, Oxy13, Oxy 14, and Oxy 15 can stimulate at least a measurable amount of a hedgehog-mediated pathway and/or osteomorphogenesis or osteoproliferation (or a marker thereof), and/or can inhibit at least a measurable amount of adipocyte morphogenesis or adipocyte proliferation (or a marker thereof). Oxy 3 and Oxy 4 can act as enhancers of activity in combination with other oxysterols.

[2] = test system: M2-10B4 (M2) murine pluripotent bone MSC line; test: Tro-induced adipocyte formation in M2 cells, Oil red O staining; assay type: cell-based, mouse; conditions: for inhibition of Tro-induced adipocyte formation: M2 cells, oxysterol 5 μM
Method: (§1) M2 mouse MSCs were purchased from American Type Culture Collection (ATCC, Rockville, Md., USA). […] Cell culture was performed in 24- and 6-well plates for adipogenic differentiation and gene expression studies, respectively, and treatment with test agents was done in growth medium.
Oil red O staining for detection of adipocytes was performed as previously described. […] The number of adipocytes was quantitated by counting Oil red O-positive cells in five separate fields per well, in three wells per experimental condition. The results are reported as the mean of triplicate determination ±SD.
(§2) Adipocyte formation was examined by Oil red O staining. […] PPARγ expression was assessed by RT-qPCR after treating M2 cells with Tro in the presence or absence of 20S. […] M2 cells at confluence were treated with control vehicle, 10 μM Tro, or 5 μM 20S, alone or in combination for 24 hours (FIG. 2A), 48 hours (FIG. 2B), and 96 hours (FIG. 2C). PPARγ mRNA expression was measured by quantitative real-time PCR.
(§3) After 10 days, adipocyte formation was measured by Oil red O staining. The number of adipocytes was determined by counting Oil red O-positive cells in five separate fields per well, in three wells per experimental condition. […] After 48 h, PPARγ mRNA expression was measured by quantitative real-time PCR. […] Luciferase activity was measured after 24 h and normalized for transfection efficiency using the Renilla luciferase activity.
Synthetic oxysterol compounds were studied for inhibition of adipogenesis and PPAR expression. […] After 10 days of treatment, cells were stained with Oil-red-O to detect adipocytes, and the number of positively stained cells was determined using light microscopy. Data from a representative experiment are reported as the mean of triplicate determination (average of five fields per well, 3 wells per experimental condition) ±SD.

[3] = test system: PPARγ; test: PPARγ mRNA expression in M2 cells by RT-qPCR; assay type: cell-based, mouse; conditions: for reversal of the inhibitory effect of 20S on Tro-induced PPARγ expression: signaling inhibitor
Method: as §1
(§4) Total RNA was extracted with the RNA isolation kit from Stratagene (La Jolla, Calif., USA) according to the manufacturer's instructions. RNA was DNase-treated using DNA-free kit from Ambion (Austin, Tex., USA). Three micrograms of RNA was reverse-transcribed using reverse transcriptase from Stratagene to make single-stranded cDNA. The cDNA was mixed with Qi SYBR Green Supermix (Bio-Rad) for quantitative RT-PCR assay using a Bio-Rad I-cycler IQ quantitative thermocycler. All PCR samples were prepared in triplicate wells of a 96-well plate. After 40 cycles of PCR, melt curves were examined to ensure primer specificity. Fold changes in gene expression were calculated using the ΔΔCt method. […] Primers used are as follows: PPARγ2 (5′-[…]-3′ and 5′-[…]-3′), C/EBPα (5′-[…]-3′ and 5′-[…]-3′), ap2 (5′-[…]-3′ and 5′-[…]-3′), LPL (5′-[…]-3′ and 5′-[…]-[…]), GATA2 (5′-[…]-3′ and 5′-[…]-3′), GATA3 (5′-[…]-3′ and 5′-[…]-3′), GILZ (5′-[…]-3′ and 5′-[…]-3′), and pref-1 (5′-[…]-3′ and 5′-[…]-3′).
as §2, §3
After 48 hours of treatment, RNA was extracted from cells and analyzed for PPARγ expression by Q-RT-PCR. Data from a representative experiment, normalized to GAPDH expression, are reported as the mean of triplicate determinations ±SD.

[4] = test system: M2-10B4 (M2) murine pluripotent bone MSC line; conditions: cited from earlier work
[5] = test system: LPL; conditions: cyclopamine, data not shown
Description: as §4

[6] = test system: aP2; test: aP2 mRNA expression in M2 cells by quantitative real-time PCR; assay type: cell-based, mouse; conditions: cyclopamine, data not shown
Method: . M2 cells at confluence were treated with control vehicle, 10 μM Tro, or 5 μM 20S, alone or in combination for 24 hours (FIG. 4A), 48 hours (FIG. 4B), and 96 hours (FIG. 4C). aP2 mRNA expression was measured by quantitative real-time PCR. Fold changes in gene expression relative to the control were calculated using the ΔΔCt method and reported as the mean of triplicate determination ±SD (p<0.0001 for Tro or Tro+20S vs. control or 20S and p<0.01 for Tro vs. Tro+20S at 24 hours (FIG. 4A); p<0.0001 for Tro or Tro+20S vs. control or 20S and for Tro vs. Tro+20S at 48 hours (FIG. 4B); p<0.0001 for Tro vs. control, 20S, or Tro+20S and p<0.001 for Tro+20S vs. control or 20S at 96 hours (FIG. 4C)).

C[C@H](O)[C@@H](C)C1CCC2C3CC=C4C[C@@H](O)CC[C@]4(C)C3CC[C@@]21C (stereo partly shown) [Oxy4]
incorporation of 45Ca in combination with 20(S)-hydroxycholesterol over 20(S)-hydroxycholesterol alone [1]: enhance

Cc1cccc(C[C@](C)(O)C2CCC3C4CC=C5C[C@@H](O)CC[C@]5(C)C4CC[C@@]32C)c1 (stereo partly shown) [Oxy11]
inhibition of Tro-induced adipocyte formation ([2]; 10 μM Tro, 10 days): inhibitory effect

CC(C)CCCC[C@](C)(O)C1CCC2C3CC=C4C[C@@H](O)CC[C@]4(C)C3CC[C@@]21C (stereo partly drawn) [Oxy12, (3S,8S,9S,10R,13S,14S,17S)-2,3,4,7,8,9,10,11,12,13,14,15,16,17-tetradecahydro-17-((S)-2-hydroxy-7-methyloctan-2-yl)-10,13-dimethyl-1H-cyclopenta[α]phenanthren-3-ol]
inhibition of Tro-induced adipocyte formation ([2]; 10 μM Tro, 10 days): inhibitory effect

C=C(C)CCC[C@](C)(O)C1CCC2C3CC=C4C[C@@H](O)CC[C@]4(C)C3CC[C@@]21C (stereo partly shown) [Oxy13]
inhibition of Tro-induced PPARγ mRNA expression ([3]; M2 cells, 10 μM Tro, oxysterol 5 μM, 24, 48, 96 h (20S), 48 h (Oxy13)): inhibits
inhibition of Tro-induced adipocyte formation ([2]; 10 μM Tro, 10 days): inhibitory effect

CC(C)=CCC[C@](C)(O)C1CCC2C3CC=C4C[C@@H](O)CC[C@]4(C)C3CC[C@@]21C (stereo partly shown) [Oxy14]
inhibition of Tro-induced adipocyte formation ([2]; 10 μM Tro, 10 days): inhibitory effect

CC(C)CC[C@@H](O)[C@](C)(O)C1CCC2C3CC=C4C[C@@H](O)CC[C@]4(C)C3CC[C@@]21C (stereo partly shown) [Oxy16]
inhibition of Tro-induced adipocyte formation ([2]; 10 μM Tro, 10 days): inhibitory effect

CC[C@H](O)[C@@H](C)C1CCC2C3CC=C4C[C@@H](O)CC[C@]4(C)C3CC[C@@]21C (stereo partly shown) [Oxy 3]
incorporation of 45Ca in combination with 20(S)-hydroxycholesterol over 20(S)-hydroxycholesterol alone [1]: enhance

CC(C)CC[C@@H](O)[C@@H](C)[C@H]1CC[C@H]2[C@@H]3CC=C4C[C@@H](O)CC[C@]4(C)[C@H]3CC[C@]12C [Oxy 22R, 22(R)-hydroxycholesterol]
adipogenic differentiation of M2 cells (previously reported) [4]: inhibit

CC(C)CC[C@H](O)[C@@H](C)[C@H]1CC[C@H]2[C@@H]3CC=C4C[C@@H](O)CC[C@]4(C)[C@H]3CC[C@]12C [Oxy 22S, 22(S)-hydroxycholesterol]
adipogenic differentiation of M2 cells (previously reported) [4]: inhibit

COc1cccc(-c2cc(=O)c3ccccc3o2)c1N [PD98059]
reversal of the inhibitory effect of 20S on Tro-induced PPARγ expression ([3]; M2 cells): 45%
reversal of the inhibitory effects of 20S on Tro-induced adipocyte formation ([2]; 10-day M2 cultures, Cyclopamine 4 μM, Dkk-1 1 μg/mL, PD98059 20 μM): 50%

CC1=C2C[C@H]3[C@@H](CC=C4C[C@@H](O)CC[C@@]43C)[C@@H]2CC[C@]12O[C@@H]1C[C@H](C)CN[C@H]1[C@H]2C [cyclopamine]
reversal of the inhibitory effects of 20S on LPL expression [5]: reversed
reversal of the inhibitory effect of 20S on Tro-induced PPARγ mRNA expression (in words) [3]: fully reversed; also recorded: completely abolished; also recorded: blocks; also recorded: completely blocked
reversal of the inhibitory effect of Shh on Tro-induced PPARγ mRNA expression (in words) [3]: fully reversed; also recorded: completely abolished; also recorded: blocks; also recorded: completely reversed; also recorded: completely blocked
reversal of the inhibitory effects of 20S on Tro-induced adipocyte formation [2]: 70%
reversal of the inhibitory effects of Shh on Tro-induced adipocyte formation [2]: 100%
reversal of the anti-adipogenic effects of 20S (in words) ([2]; 4 μM cyclopamine 2-h pretreatment, 10 μM Tro, 5 μM 20S, 10 days): reversed; also recorded: blocks; also recorded: did not completely reverse
reversal of the anti-adipogenic effects of Shh (in words) ([2]; cyclopamine 2-h pretreatment, 10 μM Tro, 200 ng/mL Shh, 10 days): completely reversed; also recorded: blocks
additional effect on adipocyte formation of increasing the dose of cyclopamine ([2]; cyclopamine from 4 to 8 μM, Tro+20S, data not shown): did not have any additional effect
reversal of the inhibitory effects of 20S on aP2 expression [6]: reversed

B1: Dkk-1: canonical Wnt signaling inhibitor (protein, UniProt O94907 32-266, looked up)
Dickkopf-related protein 1: TLNSVLNSNAIKNLPPPLGGAAGHPGSAVSAAPGILYPGGNKYQTIDNYQPYPCAEDEECGTDEYCASPTRGGDAGVQICLACRKRRKRCMRHAMCCPGNYCKNGICVSSDQNHFRGEIEETITESFGNDHSTLDGYSRRTTLSSKMYHTKGQEGSVCLRSSDCASGLCCARHFWSKICKPVLKEGQVCTKHRRKGSHGLEIFQRCYCGEGLSCRIQKDHHQASNSSRLHTCQRH
reversal of the inhibitory effect of 20S on Tro-induced PPARγ expression ([3]; M2 cells): 10%
